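Compound exposure: 48 hours, 5 concentrations, 96-well plates. GI50: concentration for 50% inhibition of growth. Definition used: TGI = concentration required for complete inhibition of growth.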
Key:
Test in all cases: growth of human tumour cells (NCI), 48 h
BT-549 breast = tested on: BT-549 breast
DLD-1 colon = tested on: DLD-1 colon
DMS 114 small cell lung = tested on: DMS 114 small cell lung
HOP-18 NSCLC = tested on: HOP-18 NSCLC
HS 578T breast = tested on: HS 578T breast
KM20L2 colon = tested on: KM20L2 colon
MDA-MB-231 breast = tested on: MDA-MB-231 breast
MDA-MB-435 = tested on: MDA-MB-435
SNB-78 CNS = tested on: SNB-78 CNS
T-47D breast = tested on: T-47D breast

SMILES | GI50 (BT-549 breast) [µM] | TGI (BT-549 breast) [µM] | GI50 (DLD-1 colon) [µM] | TGI (DLD-1 colon) [µM] | GI50 (DMS 114 small cell lung) [µM] | TGI (DMS 114 small cell lung) [µM] | GI50 (HOP-18 NSCLC) [µM] | TGI (HOP-18 NSCLC) [µM] | GI50 (HS 578T breast) [µM] | TGI (HS 578T breast) [µM] | GI50 (KM20L2 colon) [µM] | TGI (KM20L2 colon) [µM] | GI50 (MDA-MB-231 breast) [µM] | TGI (MDA-MB-231 breast) [µM] | GI50 (MDA-MB-435) [µM] | TGI (MDA-MB-435) [µM] | GI50 (SNB-78 CNS) [µM] | TGI (SNB-78 CNS) [µM] | GI50 (T-47D breast) [µM] | TGI (T-47D breast) [µM]
O=C(O)C(O)C(O)C1[O][Sb][O]C1CO (stereo not given) | > 100 | > 100 | > 100 | > 100 | > 43 | 98.3 | > 100 | > 100 | > 100 | > 100 | > 100 | > 100 | > 100 | > 100 | > 100 | > 100 | > 81.3 | > 100 | > 100 | > 100
Cc1ccc(C)c2sc3cc(=O)ccc-3nc12 |  |  |  | > 100 |  | > 100 |  | > 100 |  |  |  | > 100 |  |  |  |  |  | > 100 |  | 
Cc1ccc(NC(=O)CCC(=O)C(C#N)c2ccc(Cl)cc2)cc1C (stereo not given) |  |  |  | > 100 |  | > 100 |  | > 100 |  |  |  | > 100 |  |  |  |  |  | > 100 |  | 
